The values that follow come from patent publication US12387622B2, “Systems and methods for modeling veins and associated blood vessel components” (The Texas A&M University System, priority 2019, dated 2025).

Test [1] has as its system thrombi formation within venous valves 50A-50C. The test is described as follows: Vein-on-a-chip: anticoagulant-treated blood perfused through TNF-α treated, HUVEC-lined venous valves; platelets and fibrin imaged. Format: cell-based, human. Conditions: for thrombi at cusps 52 and at the microfluidic channel 44B: DOAC dosage increased to 500 ng/ml; for thrombi at cusps 52 and at the microfluidic channel 44B / fibrin rich clots in cusps 52 / thrombi in the luminal portion of the microfluidic model 40: venous valve 50B treated with TNF-α. On the procedure:
In this embodiment, to form microfluidic chip 40, microelectronic and semiconductor fabrication techniques were used to develop an SU-8 photoresist-based master mold. Particularly, computational fluid dynamics simulations were carried out to arrive at the open venous valve designs (e.g., venous valves 50A-50C) which contained recirculations as observed in venous valve cusps in vivo. The embodiments of the finalized venous valve designs shown in FIGS. 3-5 were developed using solid modeling computer-aided design (CAD) software (e.g., the SolidWorks™ software package published by Dassault Systemes) and a photomask of the finalized valve designs was used to fabricate the master mold using epoxy-based negative photoresist—SU-8 on a silicon wafer in this embodiment. In this embodiment for forming microchannels 44A-44C, once the master molds were fabricated, the wafers were treated with Silane, and Polydimethylsiloxane (PDMS) having an […] to crosslinker ratio of about 10:1 was poured into the master mold. In this embodiment, once the PDMS was set, the PDMS was striped and bonded to a PDMS coated glass slide to form microchannels 44A-44C, each microchannel 44A-44C having PDMS coated on each side thereof. Additionally, PDMS, being hydrophobic, was treated with plasma and then silanized with (3-aminopropyl) triethoxylsilane (APTES) to make the PDMS hydrophilic. In this embodiment, microchannels 44A-44C were then filled with type-I rat tail collagen of about 200 micrograms per milliliter (ug/ml) and fibronectin of about 50 ug/ml to form an extracellular matrix (ECM) configured to support endothelial cell growth on the walls of each microchannel 44A-44C.
(§1) In this embodiment for forming microchannels 44A-44C, human umbilical vein endothelial cells (HUVECs) were cultured over a layer of the ECM coated on microchannels 44A-44C; however, in other embodiments, human or animal cell lines other than HUVECs may also be used in the formation of microchannels 44A-44C. In this embodiment, HUVECs, a human primary cell line derived from the human umbilical vein, were acquired and seeded on T75 flasks coated with type I rat tail collagen of about 5 micrograms (μg) per 5 cm^2, the HUVECs being seeded at about 50,000 cells per flask. In this embodiment, the endothelial growth media (EGM) (EGM-2 MV, promocell in this embodiment) disposed in the flasks were replaced every two days, and once the flasks were 80% confluent, the HUVECs were detached from the flasks and seeded on microchannels 44A-44C with about 20-30 microliters (μl) of cell suspension having cell density of about 1e7 cells per milliliter (ml). The cell suspension was passed through a cell strainer to remove debris and cell aggregates that were larger than about 40 μm in diameter. In this embodiment, microchannels 44A-44C were then first filled with cell suspension and kept upside down for about 20 minutes to seed the top face of microchannels 44A-44C, and then microchannels 44A-44C were again filled with cell suspension and kept upright for 20 minutes to seed the bottom faces of microchannels 44A-44C.
To induce activation, the vascular lumen coated to microchannels 44A-44C was treated with the tumor necrosis factor (TNF) TNF-α at about 0-200 nanograms per milliliter (ng/ml) in this embodiment. Particularly, the seeded microchannels 44A-44C were perfused with media at about 1 ul/min for about 24 hours. Confluent lumen was formed on the walls of microchannels 44A-44C at the end of 24 hours. Additionally, in this embodiment, different doses TNF-α, a cytokine, was introduced into the confluent lumen of the channels for about 18 hours to observe the dose dependent inflammation of the endothelial cells in the straight sections of microchannels 44A-44C and venous valve cusps of venous valves 50A-50C.
In this embodiment of the formation of microchannels 44A-44C, to evaluate role of hypoxia, microfluidic chip 40 was incubated at 3.9% oxygen. […]

The test system of test [2] is human umbilical vein endothelial cells (HUVECs). The test is described as follows: Vein-on-a-chip: TNF-α stimulation of HUVEC lumen followed by blood perfusion at venous shear. Format: cell-based. As for the experimental part:
as §1, with “The cell suspension was passed through a cell strainer to remove debris and cell aggregates that were larger than about 40 μm in diameter. In this embodiment, microchannels 44A-44C were then first filled with cell suspension and kept upside down for about 20 minutes to seed the top face of microchannels 44A-44C, and then microchannels 44A-44C were again filled with cell suspension and kept upright for 20 minutes to seed the bottom faces of microchannels 44A-44C.” left out
In this embodiment of the formation of microchannels 44A-44C, to evaluate role of hypoxia, microfluidic chip 40 was incubated at 3.9% oxygen. […] Fluorescently labelled platelets and fibrin were visualized and quantitated via microscopes positioned adjacent microchannels 44A-44C. Additionally, in this embodiment, typical vascular identity and adhesion markers were measured through immunohistochemistry. […]

Where [3] appears, read: standard dosage 100 ng/ml of Rivaroxaban in blood.
Setting [4] is: standard dosage 50 ng/ml of Apixaban in blood.

As to Heparin, in test [1] (addition of heparin in blood, dose dependent), the “thrombi formation within venous valves 50A-50C” value is recorded as “decreased the thrombi formation”. Further, the “fibrin in cusps 52” value in test [1] (higher Heparin dosage 0.50 IU/ml, TNF-α 5 ng/ml) was “only reduced at the higher Heparin dosage”. Besides, in test [1] (lower dose of Heparin (approximately 0.25 IU/ml), TNF-α 5 ng/ml), the “fibrin within microfluidic model 40” value is “reduction in fibrin resulted”. Besides, in test [1] (when the dosage of Heparin was increased (0.25 to 0.50 IU/ml), valve 50B treated with TNF-α 5 ng/ml, FIG. 38), the “thrombi formed in microfluidic channels 44A-44C” value was “reduced significantly”.

Take `O=C(NC[C@H]1CN(c2ccc(N3CCOCC3=O)cc2)C(=O)O1)c1ccc(Cl)s1` [Rivaroxaban]: the “thrombi at cusps 52 and at the microfluidic channel 44B” value in test [1] was “thrombi detected”. For the same molecule, in test [1] (setting [3]), the “fibrin rich clots in cusps 52” value was “fibrin rich clots were present” and the “thrombi in the luminal portion of the microfluidic model 40” value is reported as “unobservable thrombi”.

Take `COc1ccc(-n2nc(C(N)=O)c3c2C(=O)N(c2ccc(N4CCCCC4=O)cc2)CC3)cc1` [Apixaban]: the “thrombi at cusps 52 and at the microfluidic channel 44B” value in test [1] was “thrombi detected”. Besides, in test [1] (setting [4]), the “fibrin rich clots in cusps 52” value was “fibrin rich clots were present” and the “thrombi in the luminal portion of the microfluidic model 40” value is given as “unobservable thrombi”.

Turning to TNF-α, the “thrombi in venous valves upon stimulation of HUVECs” value in test [2] (blood perfused at venous shear of about 0.5 dynes/cm^2, no thrombi with untreated HUVECs) is “thrombi were detected”. Also, the “clot formation in lumen treated with varying doses of cytokine” value in test [2] (blood perfused at venous shear rates) was “fibrin rich clots were predominantly formed in the venous valve cusps”.
